A short description of this data set: Mechanical stability test (grinding and pelleting). The class given is physicochemical. As to the method: The mechanical stability of crystalline forms I and III were investigated by grinding and pelleting. Grinding test method: the sample to be measured was put in a mortar and grinded for 2 minutes and 5 minutes respectively, then XRPD was test, and the changes of crystalline form and crystallinity were observed. Pelleting test method: the sample was placed in the die of tablet press, kept at 40 MPa for one minute, and then the crystalline form taken out to test XRPD.

We go through one compound from patent US20230406850A1, “CRYSTALLINE FORM OF HETEROCYCLIC COMPOUND, PREPARATION METHOD THEREFOR AND APPLICATION THEREOF” (WUHAN LL SCIENCE AND TECHNOLOGY DEVELOPMENT CO., LTD., priority 2020, published 2023).

SMILES strings stand for the structures.

Turning to `COC(=O)N1CCO[C@@H](Cc2c(-c3c(F)cc(S(N)(=O)=O)cc3F)nc3cc(Cl)ccn23)C1` [Crystalline form III, methyl (S)-2-((7-chloro-2-(2,6-difluoro-4-sulfamoylphenyl)imidazo[1,2-a]pyridin-3-yl)methyl)morpholine-4-carboxylate], the crystallinity after pelleting entry (40 MPa, 1 min) is on record as “decreases obviously”. The “crystalline form and crystallinity after grinding” value (grinding 2 min and 5 min) was “no obvious change in crystalline form and crystallinity”.
